Measurements as given in patent publication US20140163218A1, “NOVEL PHTHALOCYANINE DERIVATIVES FOR THERAPEUTIC USE” (MOLTENI THERAPEUTICS S.R.L., priority 2011, published 2014).
Marks after values point to notes of the source that are not given here.

Tests used:
[1] = Stability in water by HPLC (loss of titre and purity after 8 hours); format: physicochemical; settings: 1 mg/mL in DMSO diluted 1:10 with deionised water, HPLC at time 0 and after 8 hours; result in words
Protocol: Protocol: each sample is dissolved in DMSO at the concentration of 1 mg/mL and then diluted 1:10 with deionised water. The solution is analysed in HPLC at time 0 and after 8 hours and any loss of titre and/or of purity is recorded by the following method: Column: Luna C18 (2) 150*4.6 mm (5 μm);
elution in gradient of AcOH 0.1% in water (Eluent A) and methanol (Eluent B) with % B 10-100 in 20 min or 40-100 depending on the polarity of the injected compound; flow 1 mL/min; temperature: 25° C.; injection […]; detection at 686 nm, bw 20 nm.

Candida albicans = settings: 99.9% reduction; 1 hr incubation at 37° C.; red light 600-700 nm, 50 mW/cm^2 for 10 min, 30 J/cm^2
Protocol: (§1) The bacterial and fungal cells (ATCC of Staphylococcus aureus, Escherichia coli and Pseudomonas aeruginosa strains for the bacteria, Candida albicans for the yeasts) are grown in a Tryptic Soy Broth (TSB) liquid medium at 37° C. for 16-20 hr (bacteria) and in Sabouraud Dextrose Broth (SDB) at 37° C. for 24 hr (yeasts) in an aerobic atmosphere.
(§2) The cells are collected for centrifugation (2000 g, 15 min.) and re-suspended in sterile PBS (pH=7.3±0.1).
(§3) Exposure of the microorganisms to the photosensitiser and to the light source is carried out in wells of sterile, polystyrene, Microtiter plates, in PBS containing the desired concentration of photosensitiser. The plate is left to incubate at room temperature, for 5 min for the bacteria and for 1 hr at 37° C. for the yeasts. For lighting with red visible light a halogen lamp is used, model PDT 1200 Waldmann (A=600-700 nm) at 50 mW/cm^2 for 10 min and the total dose of light consequently used in the assay is of 30 J/cm^2.
(§4) After illuminating the bacterial or fungal suspension, and suitable dilutions thereof in sterile PBS, they are inoculated on agar plates to determine the number of residual UFCs. The plates are incubated at 37° C. for 24 hours and the results are recorded at the end of this period.

Escherichia coli = settings: 99.9% reduction; 5 min incubation; red light 600-700 nm, 50 mW/cm^2 for 10 min, 30 J/cm^2
Protocol: as §1, §2, §3, §4

Pseudomonas aeruginosa = settings: 99.9% reduction; 5 min incubation; red light 600-700 nm, 50 mW/cm^2 for 10 min, 30 J/cm^2
Protocol: as §1, §2, §3, §4

Staphylococcus aureus = settings: 99.9% reduction; 5 min incubation; red light 600-700 nm, 50 mW/cm^2 for 10 min, 30 J/cm^2
Protocol: as §1, §2, §3, §4

Row | Substance | Loss of purity (% area) [1] | Loss of titre (%) [1] | MFC, 3 log (μM) C. albicans (Candida albicans) | MBC, 3 log (μM) E. coli (Escherichia coli) [μM] | MBC, 3 log (μM) P. aeruginosa (Pseudomonas aeruginosa) [μM] | MBC, 3 log (μM) S. aureus (Staphylococcus aureus) [μM]
1 | {bis-[bis-(p-N,N,N-trimethylammoniumphenyl)]-3-(N-methyl-piperidine-1-ium)propylsilyloxy}silicon(IV) phthalocyanine hexachloride [Compound 1] | insignificant (of ≦ to 0.1% for the loss of purity) | insig- nificant | 12.5 μM | 6.25 | 6.25 | 0.78
2 | {bis-[bis-(p-N,N,N-trimethylammoniumphenyl)]propylsilyloxy}silicon(IV) phthalocyanine tetrachloride [Compound 3] | insignificant (of ≦ to 0.1% for the loss of purity) | insig- nificant | >50 μM | 3.13 | 1.56 | 0.05
3 | {bis-[bis-(3-N,N,N-trimethylammoniumpropyl)]propylsilyloxy}silicon(IV) phthalocyanine tetrachloride [Compound 2] | insignificant (of ≦ to 0.1% for the loss of purity) | insig- nificant | >50 μM | 6.25 | 6.25 | 0.25
4 | {bis-[3-(m-N,N,N-trimethylammoniumphenyloxy)propyl-dipropylsilyloxyl]}silicon(IV) phthalocyanine dichloride [Compound 5] | insignificant (of ≦ to 0.1% for the loss of purity) | insig- nificant | 50 μM | 25 | 25 | 0.1
5 | {bis-[3-(N-methyl-piperidin-1-ium)propyl-dipropvlsilyloxy]}silicon(IV) phthalocyanine dichloride [Compound 4] | insignificant (of ≦ to 0.1% for the loss of purity) | insig- nificant | 3.13* μM | 6.25 | 50 | 0.03
